# Results taken from patent US20220242870A1, “HETEROCYCLE-FUSED PYRIMIDINE DERIVATIVE AND USE THEREOF” (VORONOI Inc., priority 2019, published 2022).
# Experiments:
# human FLT3-ITD enzyme = target: T1, human FLT3-ITD enzyme (Homo sapiens, UniProt P36888); experiment: FLT3 enzyme inhibitory ability (ADP-Glo kinase assay); assay type: biochemical; conditions: human FLT3-ITD enzyme 10 ng, ATP 10 μM, 25° C. 1 hour
# T1 sequence (P36888 1-993): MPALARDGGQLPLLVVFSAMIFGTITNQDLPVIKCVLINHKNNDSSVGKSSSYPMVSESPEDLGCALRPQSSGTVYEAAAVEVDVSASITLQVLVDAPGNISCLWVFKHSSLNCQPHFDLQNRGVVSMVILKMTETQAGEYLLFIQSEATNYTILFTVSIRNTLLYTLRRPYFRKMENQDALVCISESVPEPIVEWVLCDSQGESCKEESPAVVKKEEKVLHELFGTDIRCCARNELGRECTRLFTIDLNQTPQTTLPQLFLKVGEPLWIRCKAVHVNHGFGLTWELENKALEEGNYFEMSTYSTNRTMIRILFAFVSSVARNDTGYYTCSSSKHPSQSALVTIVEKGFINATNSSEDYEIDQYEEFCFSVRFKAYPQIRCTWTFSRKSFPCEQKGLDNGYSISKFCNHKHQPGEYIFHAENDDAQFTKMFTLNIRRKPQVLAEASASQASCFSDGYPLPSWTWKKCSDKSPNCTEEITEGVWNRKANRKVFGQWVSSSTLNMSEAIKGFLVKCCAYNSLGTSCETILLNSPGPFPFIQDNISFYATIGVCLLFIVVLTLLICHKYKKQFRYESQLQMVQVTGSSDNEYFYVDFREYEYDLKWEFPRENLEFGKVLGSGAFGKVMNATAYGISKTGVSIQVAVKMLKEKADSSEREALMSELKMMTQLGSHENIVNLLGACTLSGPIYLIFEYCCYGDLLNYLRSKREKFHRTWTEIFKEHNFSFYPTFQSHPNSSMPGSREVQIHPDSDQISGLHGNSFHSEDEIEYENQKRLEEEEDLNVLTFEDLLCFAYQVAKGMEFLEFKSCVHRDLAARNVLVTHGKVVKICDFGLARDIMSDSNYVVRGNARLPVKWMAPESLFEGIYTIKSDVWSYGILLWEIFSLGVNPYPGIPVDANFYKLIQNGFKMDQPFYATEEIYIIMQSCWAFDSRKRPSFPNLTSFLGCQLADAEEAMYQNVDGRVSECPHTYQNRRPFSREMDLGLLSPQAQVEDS
# Description: The inhibitory activities of the example compounds according to the present invention to the FLT3-ITD enzyme were evaluated. Specifically, the compound of the present invention was reacted with a purified human FLT3-ITD enzyme (Signalchem). A composition of 40 mM Tris-HCl pH 7.4, 20 mM MgCl2, 0.5 mg/mL BSA and 50 μM DTT was used as a reaction buffer, and reactions of all test matters were performed on the reaction buffer. Upon the test, human FLT3-ITD enzyme (10 ng), purified ATP (10 μM) and a specific substrate solution were reacted at 25° C. for 1 hour, and then the enzyme activity was identified using an in vitro ADP-Glo™ kinase assay (Promega). The enzyme activity reaction solution, the ADP-Glo reaction solution and the enzyme ability detection solution were reacted in a ratio of 2:2:1, and the activity inhibition degree of the enzyme was measured as luminescence. Using the solvent-treated group that was not treated with the compound as a control group, the enzyme activity inhibition degree according to the treatment concentration of each compound was calculated based on the enzyme activity fluorescence degree, and the concentration of each compound that inhibited 50%, IC50 (nM), was determined using Prism Software (version 5.01, GraphPad).
# human GST-HPK1 (1-346) = target: T2, human GST-HPK1 (1-346) (Homo sapiens, UniProt Q92918); experiment: HPK1 enzyme inhibitory ability (ADP-Glo kinase assay); assay type: biochemical; conditions: human GST-HPK1 3 ng, ATP 3 uM, 25° C. 2 hours
# T2 construct: purified human GST-HPK1 (1-346, Signalchem) enzyme; purchased Signalchem
# T2 sequence (Q92918 1-346): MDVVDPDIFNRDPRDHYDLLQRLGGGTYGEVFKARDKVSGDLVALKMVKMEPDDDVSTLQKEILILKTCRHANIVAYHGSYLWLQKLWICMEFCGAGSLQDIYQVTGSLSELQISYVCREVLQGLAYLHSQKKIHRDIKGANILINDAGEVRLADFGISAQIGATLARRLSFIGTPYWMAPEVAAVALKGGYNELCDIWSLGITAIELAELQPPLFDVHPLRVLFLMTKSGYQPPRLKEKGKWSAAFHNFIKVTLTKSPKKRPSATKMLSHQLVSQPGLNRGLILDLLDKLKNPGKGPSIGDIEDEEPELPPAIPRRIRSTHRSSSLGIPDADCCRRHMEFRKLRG
# Description: In order to evaluate the inhibitory activities of the example compounds according to the present invention on the HPK1 (hematopoietic progenitor kinase 1) enzyme, the following experiment was performed. The example compounds were reacted with the purified human GST-HPK1 (1-346, Signalchem) enzyme to evaluate the enzyme inhibitory ability by the following method. As the reaction buffer, a composition of 40 mM Tris-HCl pH 7.4, 20 mM MgCl2, 0.5 mg/mL BSA and 50 uM DTT was used, and reactions of all test matters were performed on the reaction buffer. Upon the test, the human GST-HPK1 (3 ng) enzyme, the purified ATP (3 uM) and a specific substrate solution were reacted at 25° C. for 2 hours, and then the enzyme activity was identified using an in vitro ADP-Glo™ kinase assay (promega). The enzyme activity reaction solution, the ADP-Glo reaction solution and the enzyme ability detection solution were reacted in a ratio of 2:2:1 to measure luminescence. The enzyme activity inhibition degree according to the treatment concentrations of the respective compounds was calculated based on the fluorescence of the enzyme activity of the solvent control group that was not treated with the compound, where the concentration of each compound that inhibited enzyme activity inhibition by 50% was determined as an IC50 (nM) value.
Structure (SMILES),IC50 (human FLT3-ITD enzyme) [nM],IC50 (human GST-HPK1 (1-346)) [nM]
"c1ccc([C@@H]2CCON2c2nc(Nc3ccc(N4CCC(N5CCN(C6CC6)CC5)CC4)cc3)nc3[nH]ccc23)cc1 [Example 86, (S)-N-(4-(4-(4-cyclopropylpiperazin-1-yl)piperidin-1-yl)phenyl)-4-(3-phenylisoxazolidin-2-yl)-7H-pyrrolo[2,3-d]pyrimidin-2-amine]",,> 500
"COc1cc(N2CCC(N3CCN(C)CC3)CC2)ccc1Nc1nc(N2OCC[C@H]2c2ccccc2)c2cc[nH]c2n1 [Example 88, (S)-N-(2-methoxy-4-(4-(4-methylpiperazin-1-yl)piperidin-1-yl)phenyl)-4-(3-phenylisoxazolidin-2-yl)-7H-pyrrolo[2,3-d]pyrimidin-2-amine]",,> 500
"COc1cc(C(=O)N2CCC(N3CCOCC3)CC2)ccc1Nc1nc(N2OCC[C@H]2c2ccccc2)c2cc[nH]c2n1 [Example 97, (S)-(3-methoxy-4-((4-(3-phenylisoxazolidin-2-yl)-7H-pyrrolo[2,3-d]pyrimidin-2-yl)amino)phenyl)(4-morpholinopiperidin-1-yl)methanone]",,> 500
"COc1cc(C(=O)N2CCC(N3CCN(C)CC3)CC2)ccc1Nc1nc(N2OCC[C@H]2c2ccccc2)c2cc[nH]c2n1 [Example 98, (S)-(3-methoxy-4-((4-(3-phenylisoxazolidin-2-yl)-7H-pyrrolo[2,3-d]pyrimidin-2-yl)amino)phenyl)(4-(4-methylpiperazin-1-yl)piperidin-1-yl)methanone]",,> 500
"Cc1cc(Nc2nc(N3OCC[C@H]3c3ccccc3)c3cc[nH]c3n2)cc(C)c1OCCCN1CCN(C)CC1 [Example 102, (S)-N-(3,5-dimethyl-4-(3-(4-methylpiperazin-1-yl)propoxy)phenyl)-4-(3-phenylisoxazolidin-2-yl)-7H-pyrrolo[2,3-d]pyrimidin-2-amine]",,≥ 250
"CN(C)C(=O)Cn1cc(Nc2nc(N3OCC[C@H]3c3ccccc3)c3cc[nH]c3n2)cn1 [Example 103, S-N,N-dimethyl-2-(4-((4-(3-phenylisoxazolidin-2-yl)-7H-pyrrolo[2,3-d]pyrimidin-2-yl)amino)-1H-pyrazol-1-yl)acetamide]",,> 500
"COc1cc2c(cc1Nc1nc(N3OCC[C@H]3c3ccccc3)c3cc[nH]c3n1)CN(C)CC2 [Example 106, (S)-6-methoxy-2-methyl-N-(4-(3-phenylisoxazolidin-2-yl)-7H-pyrrolo[2,3-d]pyrimidin-2-yl)-1,2,3,4-tetrahydroisoquinolin-7-amine]",,> 500
"COc1cc2c(cc1Nc1nc(N3OCC[C@H]3c3ccccc3)c3cc[nH]c3n1)CNCC2 [Example 107, (S)-6-methoxy-N-(4-(3-phenylisoxazolidin-2-yl)-7H-pyrrolo[2,3-d]pyrimidin-2-yl)-1,2,3,4-tetrahydroisoquinolin-7-amine]",,> 500
"COc1cc2c(cc1Nc1nc(N3OCC[C@H]3c3ccccc3)c3cc[nH]c3n1)C(=O)NCC2 [Example 108, (S)-6-methoxy-7-((4-(3-phenylisoxazolidin-2-yl)-7H-pyrrolo[2,3-d]pyrimidin-2-yl)amino)-3,4-dihydroisoquinolin-1(2H)-one]",,≥ 250
"CC(=O)N1CCc2cc(Nc3nc(N4OCC[C@H]4c4ccccc4)c4cc[nH]c4n3)ccc2C1 [Example 112, (S)-1-(6-((4-(3-phenylisoxazolidin-2-yl)-7H-pyrrolo[2,3-d]pyrimidin-2-yl)amino)-3,4-dihydroisoquinolin-2(1H)-yl)ethan-1-one]",,> 500
"COc1ccc2c(c1Nc1nc(N3OCC[C@H]3c3ccccc3)c3cc[nH]c3n1)CCNC2 [Example 113, (S)-6-methoxy-N-(4-(3-phenylisoxazolidin-2-yl)-7H-pyrrolo[2,3-d]pyrimidin-2-yl)-1,2,3,4-tetrahydroisoquinolin-5-amine]",,> 500

# Other lines, results leading:
IC50 (human FLT3-ITD enzyme) [nM],IC50 (human GST-HPK1 (1-346)) [nM],Structure (SMILES)
> 500,,"COc1cc(-c2cnn(C)c2)ccc1Nc1nc(N2N=CCC2c2ccccc2)c2sccc2n1 (stereo not shown) [Example 42, N-(2-methoxy-4-(1-methyl-1H-pyrazol-4-yl)phenyl)-4-(5-phenyl-4,5-dihydro-1H-pyrazol-1-yl)thieno[3,2-d]pyrimidin-2-amine]"
> 500,,"Cc1cc(Nc2nc(N3N=CCC3c3ccccc3)c3sccc3n2)cc(C)c1OCCCN1CCCC1 (stereo not shown) [Example 49, N-(3,5-dimethyl-4-(3-(pyrrolidin-1-yl)propoxy)phenyl)-4-(5-phenyl-4,5-dihydro-1H-pyrazol-1-yl)thieno[3,2-d]pyrimidin-2-amine]"
> 500,,"Cc1cc(Nc2nc(N3N=CCC3c3ccccc3)c3sccc3n2)cc(C)c1OCCCN1CCN(C)CC1 (stereo not shown) [Example 50, N-(3,5-dimethyl-4-(3-(4-methylpiperazin-1-yl)propoxy)phenyl)-4-(5-phenyl-4,5-dihydro-1H-pyrazol-1-yl)thieno[3,2-d]pyrimidin-2-amine]"
> 500,,"CN1CCN(c2ccc(Nc3nc(N4N=CCC4c4ccccc4)c4sccc4n3)cc2C(F)(F)F)CC1 (stereo not shown) [Example 53, N-(4-(4-methylpiperazin-1-yl)-3-(trifluoromethyl)phenyl)-4-(5-phenyl-4,5-dihydro-1H-pyrazol-1-yl)thieno[3,2-d]pyrimidin-2-amine]"
> 500,,"CN1CCN(Cc2ccc(Nc3nc(N4N=CCC4c4ccccc4)c4sccc4n3)cc2C(F)(F)F)CC1 (stereo not shown) [Example 54, N-(4-((4-methylpiperazin-1-yl)methyl)-3-(trifluoromethyl)phenyl)-4-(5-phenyl-4,5-dihydro-1H-pyrazol-1-yl)thieno[3,2-d]pyrimidin-2-amine]"
> 500,,"CN1CCN(C2CCN(c3c(F)cc(Nc4nc(N5N=CCC5c5ccccc5)c5sccc5n4)cc3F)CC2)CC1 (stereo not shown) [Example 55, N-(3,5-difluoro-4-(4-(4-methylpiperazin-1-yl)piperidin-1-yl)phenyl)-4-(5-phenyl-4,5-dihydro-1H-pyrazol-1-yl)thieno[3,2-d]pyrimidin-2-amine]"
> 500,,"CCN1CCN(c2c(F)cc(Nc3nc(N4N=CCC4c4ccccc4)c4sccc4n3)cc2F)CC1 (stereo not shown) [Example 56, N-(4-(4-ethylpiperazin-1-yl)-3,5-difluorophenyl)-4-(5-phenyl-4,5-dihydro-1H-pyrazol-1-yl)thieno[3,2-d]pyrimidin-2-amine]"
,> 500,"COc1cc(N2CCN(C)CC2)ccc1Nc1nc(N2OCC[C@H]2c2ccccc2)c2cc[nH]c2n1 [Example 80, (S)-N-(2-methoxy-4-(4-methylpiperazin-1-yl)phenyl)-4-(3-phenylisoxazolidin-2-yl)-7H-pyrrolo[2,3-d]pyrimidin-2-amine]"
